Measured values as given in PMC8659069, “Optimization of 4-Anilinoquinolines as Dengue Virus Inhibitors” (Molecules, 2021).
Like-named read-outs stand apart in the source and are kept apart here.

How the values were obtained:
DENV2 = test: microbe, parasite or virus in culture; format: cell-based, dengue virus (DENV2, New Guinea C strain); conditions: for EC50: read-out: DENV Inhibition EC50; for EC90: read-out: DENV Inhibition EC90
in vitro [1] = conditions: human
VEEV (TC-83) = test: microbe, parasite or virus in culture; format: cell-based, Venezuelan Equine Encephalitis virus; conditions: for EC50: read-out: VEEV Inhibition EC50; for EC90: read-out: VEEV Inhibition EC90
in vitro [2] = conditions: African green monkey
in vitro [3] = conditions: human; remark: listed apart in the source
DENV = tested on: DENV; parameters: method as in PMID 28240606, PMID 22448770, PMID 26039671, PMID 19223625, PMID 32631507; conditions: serotype 2; erlotinib in Huh7 (Figure 2); ref [14],[29],[30],[31],[32],[33]; read-out: DENV EC50 (previously reported); cited from earlier work
[4] = Dengue virus, DENV2, Huh-7, 48 h
[5] = Venezuelan equine encephalitis virus, U-87 MG, 18 h

## CC(C)(C)c1cccc(Nc2ccnc3ccc(Br)cc23)c1 [Compound 27]
DENV2; [4]
  EC50: 0.94 µM
In vitro [1]
  CC50: 6 µM

## CNc1cccc(Nc2ccnc3ccc(Br)cc23)c1 [Compound 21, N^1-(6-bromoquinolin-4-yl)-N^3-methylbenzene-1,3-diamine]
VEEV (TC-83)
  reduction in potency against VEEV relative to DENV: 4-8 fold
  EC50: 1 µM
  EC90: > 10 µM
VEEV (TC-83); [5]
  EC50: 1.03 µM
  EC90: 10.7 µM
DENV2
  selectivity index window (CC50/EC50, DENV, Huh7): 22 fold
DENV2; [4]
  EC50: 0.24 µM
  EC90: 0.69 µM
In vitro [2]
  CC50: > 10 µM

## Nc1cccc(Nc2ccnc3ccc(Br)cc23)c1 [Compound 20]
DENV2; [4]
  EC50: > 10 µM
In vitro [1]
  CC50: > 10 µM

## COc1cccc(Nc2ccnc3ccc(Br)cc23)c1OC [Compound 33]
DENV2; [4]
  EC50: 7.8 µM
In vitro [1]
  CC50 at 48 h: > 10 µM

## CCN(CC)CCNC(=O)c1c(C)[nH]c(/C=C2\C(=O)Nc3ccc(F)cc32)c1C [Sunitinib, sunitinib, reference compound]
VEEV (TC-83); [5]
  EC50: 4.4 µM
  EC90: > 10 µM
DENV2; [4]
  EC50: 1.1 µM
  EC90: > 10 µM
In vitro [2]
  CC50: > 10 µM
In vitro [1]
  CC50: > 10 µM
In vitro [3]
  CC50: > 10 µM

## O=c1[nH]c2cc(Nc3ccnc4ccc(Br)cc34)ccc2o1 [Compound 54]
DENV2; [4]
  EC50: > 10 µM
In vitro [1]
  CC50: > 10 µM

## COc1cccc(Nc2ccnc3ccc(C(F)(F)F)cc23)c1 [Compound 4]
VEEV (TC-83); [5]
  EC50: > 10 µM
  EC90: > 10 µM
DENV2; [4]
  EC50: 0.82 µM
  EC90: 1.5 µM
In vitro [2]
  CC50: > 10 µM
In vitro [1]
  CC50: > 10 µM
In vitro [3]
  CC50: > 10 µM

## Nc1cccc(Nc2ccnc3ccc(C(F)(F)F)cc23)c1 [Compound 7]
DENV2; [4]
  EC50: 5.9 µM
In vitro [1]
  CC50: > 10 µM

## Brc1ccc2nccc(Nc3cccc4sccc34)c2c1 [Compound 43]
DENV2; [4]
  EC50: 2.9 µM
In vitro [1]
  CC50: > 10 µM

## Brc1ccc2nccc(Nc3cccc4nonc34)c2c1 [Compound 44]
DENV2; [4]
  EC50: 9.2 µM
In vitro [1]
  CC50 at 48 h: > 10 µM

## CC(C)(C)Oc1cccc(Nc2ccnc3ccc(Br)cc23)c1 [Compound 26]
DENV2; [4]
  EC50: 2.3 µM
In vitro [1]
  CC50: 9.2 µM

## Brc1ccc2nccc(Nc3ccc4cn[nH]c4c3)c2c1 [Compound 49]
DENV2; [4]
  EC50: 1.8 µM
In vitro [1]
  CC50: > 10 µM

## CN(C)c1cccc(Nc2ccnc3ccc(C(F)(F)F)cc23)c1 [Compound 9]
DENV2; [4]
  EC50: 2.3 µM
In vitro [1]
  CC50: > 10 µM

## CN(C)c1cccc(Nc2ccnc3ccc(Br)cc23)c1 [Compound 22]
DENV2; [4]
  EC50: > 10 µM
In vitro [1]
  CC50: > 10 µM

## Fc1ccc2c(c1Nc1ccnc3ccc(Br)cc13)OCO2 [Compound 32]
DENV2; [4]
  EC50: 1.9 µM
In vitro [1]
  CC50 at 48 h: > 10 µM

## Brc1ccc2nccc(Nc3cccc4scnc34)c2c1 [Compound 42]
DENV2; [4]
  EC50: > 10 µM
In vitro [1]
  CC50: > 10 µM

## Cn1c(=O)[nH]c2cc(Nc3ccnc4ccc(Br)cc34)ccc21 [Compound 55]
DENV2; [4]
  EC50: 7.1 µM
In vitro [1]
  CC50 at 48 h: > 10 µM

## COc1cccc(Nc2ccnc3ccc(OC)cc23)c1 [Compound 15]
DENV2; [4]
  EC50: 4.4 µM
In vitro [1]
  CC50: > 10 µM

## Oc1cccc(Nc2ccnc3ccc(Br)cc23)c1 [Compound 12, 3-((6-bromoquinolin-4-yl)amino)phenol]
VEEV (TC-83); [5]
  EC50: 9.9 µM
  EC90: > 10 µM
DENV2; [4]
  EC50: 0.63 µM
  EC90: 3.2 µM
In vitro [2]
  CC50: > 10 µM
In vitro [1]
  CC50: > 10 µM
other
  melting point: > 300 °C
In vitro [3]
  CC50: > 10 µM

## O=C1NCc2ccc(Nc3ccnc4ccc(Br)cc34)cc21 [Compound 52, 6-((6-bromoquinolin-4-yl)amino)isoindolin-1-one]
VEEV (TC-83)
  reduction in potency against VEEV relative to DENV: 4-8 fold
VEEV (TC-83); [5]
  EC50: 3.6 µM
  EC90: > 10 µM
DENV2; [4]
  EC50: 0.64 µM
  EC90: 1.51 µM
DENV2
  EC90: 1.5 µM
In vitro [2]
  CC50: > 10 µM
In vitro [1]
  CC50 at 48 h: > 10 µM
In vitro [3]
  CC50: > 10 µM

## Brc1ccc2nccc(Nc3cccc4c3OCO4)c2c1 [Compound 30]
DENV2; [4]
  EC50: > 10 µM
In vitro [1]
  CC50: > 10 µM

## COc1cccc(Nc2ccnc3ccc(Br)cc23)c1 [Compound 11]
DENV2; [4]
  EC50: 0.84 µM
In vitro [1]
  CC50: > 10 µM

## Cn1ncc2c(Nc3ccnc4ccc(Br)cc34)cccc21 [Compound 47]
DENV2; [4]
  EC50: ~5 µM
DENV2
  EC50: 5.4 µM
In vitro [1]
  CC50 at 48 h: > 10 µM

## Brc1ccc2nccc(Nc3ccc4[nH]ncc4c3)c2c1 [Compound 51]
DENV2; [4]
  EC50: 1.2 µM
In vitro [1]
  CC50 at 48 h: > 10 µM

## Brc1ccc2nccc(Nc3cccc4cnoc34)c2c1 [Compound 39]
DENV2; [4]
  EC50: > 10 µM
In vitro [1]
  CC50 at 48 h: > 10 µM

## Brc1ccc2nccc(Nc3cccc4c3CCO4)c2c1 [Compound 35]
DENV2; [4]
  EC50: 0.95 µM
In vitro [1]
  CC50: > 10 µM

## OCc1ccccc1Nc1ccnc2ccc(Br)cc12 [Compound 24]
DENV2; [4]
  EC50: 7.1 µM
In vitro [1]
  CC50: > 10 µM

## C#Cc1cccc(Nc2ncnc3cc(OCCOC)c(OCCOC)cc23)c1 [Erlotinib, erlotinib]
DENV
  EC50: 6.5 µM

## CNc1cccc(Nc2ccnc3ccc(C(F)(F)F)cc23)c1 [Compound 8]
DENV2; [4]
  EC50: 8.9 µM
In vitro [1]
  CC50: > 10 µM

## Brc1ccc2nccc(Nc3cccc4c3OCC4)c2c1 [Compound 36]
DENV2; [4]
  EC50: 5.7 µM
In vitro [1]
  CC50 at 48 h: > 10 µM

## Brc1ccc2nccc(Nc3cccc4oncc34)c2c1 [Compound 40]
DENV2; [4]
  EC50: > 10 µM
In vitro [1]
  CC50 at 48 h: > 10 µM

## Brc1ccc2nccc(Nc3cccc4ncoc34)c2c1 [Compound 41]
DENV2; [4]
  EC50: 3.2 µM
In vitro [1]
  CC50: > 10 µM

## COc1ccc2nccc(Nc3cccc(O)c3)c2c1 [Compound 16]
DENV2; [4]
  EC50: > 10 µM
In vitro [1]
  CC50: > 10 µM

## COc1cc(Nc2c(C#N)cnc3ccc(I)cc23)cc(OC)c1OC [Compound 3]
DENV
  EC50: 0.079 µM

## Oc1cccc(Nc2ccnc3ccc(C(F)(F)F)cc23)c1 [Compound 5]
DENV2; [4]
  EC50: 2.7 µM
In vitro [1]
  CC50: > 10 µM

## Brc1ccc2nccc(Nc3cccc4c3COC4)c2c1 [Compound 31]
DENV2; [4]
  EC50: > 10 µM
In vitro [1]
  CC50: > 10 µM

## O=S1(=O)Cc2ccc(Nc3ccnc4ccc(Br)cc34)cc2C1 [Compound 56]
DENV2; [4]
  EC50: 6.3 µM
In vitro [1]
  CC50 at 48 h: > 10 µM

## OCc1cccc(Nc2ccnc3ccc(Br)cc23)c1 [Compound 23]
DENV2; [4]
  EC50: 3.7 µM
In vitro [1]
  CC50: > 10 µM

## FS(F)(F)(F)(F)c1cccc(Nc2ccnc3ccc(Br)cc23)c1 [Compound 25]
DENV2; [4]
  EC50: 1.5 µM
In vitro [1]
  CC50: > 10 µM

## Brc1ccc2nccc(Nc3ccc4c(c3)COC4)c2c1 [Compound 29]
DENV2; [4]
  EC50: > 10 µM
In vitro [1]
  CC50: > 10 µM

## Brc1ccc2nccc(Nc3cccc4nsnc34)c2c1 [Compound 45]
DENV2; [4]
  EC50: 5.8 µM
In vitro [1]
  CC50 at 48 h: > 10 µM

## CS(=O)(=O)c1ccc2nccc(Nc3cccc(O)c3)c2c1 [Compound 18]
DENV2; [4]
  EC50: > 10 µM
In vitro [1]
  CC50: > 10 µM

## COc1cccc(Nc2ccnc3ccccc23)c1 [Compound 13]
DENV2; [4]
  EC50: 2.5 µM
In vitro [1]
  CC50: > 10 µM

## CC(C)(C)Oc1cccc2nc(N)nc(N)c12 [Compound 1]
DENV
  EC50: 0.0028 µM

## O=[N+]([O-])c1cccc(Nc2ccnc3ccc(C(F)(F)F)cc23)c1 [Compound 6]
DENV2; [4]
  EC50: > 10 µM
In vitro [1]
  CC50: > 10 µM

## Cn1nnc2c(Nc3ccnc4ccc(Br)cc34)cccc21 [Compound 46]
DENV2; [4]
  EC50: ~5 µM
DENV2
  EC50: 5.5 µM
In vitro [1]
  CC50 at 48 h: > 10 µM

## O=[N+]([O-])c1cccc(Nc2ccnc3ccc(Br)cc23)c1 [Compound 19]
DENV2; [4]
  EC50: > 10 µM
In vitro [1]
  CC50: > 10 µM

## OCc1cccc(Nc2ccnc3ccc(C(F)(F)F)cc23)c1 [Compound 10]
DENV2; [4]
  EC50: 6.6 µM
In vitro [1]
  CC50: > 10 µM

## Clc1ccc(-c2ccc(-c3nc(NCc4cccnc4)nc4ccccc34)s2)cc1 [Compound 2]
DENV
  EC50: 0.07 µM

## Oc1cccc(Nc2ccnc3ccccc23)c1 [Compound 14]
DENV2; [4]
  EC50: > 10 µM
In vitro [1]
  CC50: > 10 µM

## O=c1[nH]c2ccc(Nc3ccnc4ccc(Br)cc34)cc2[nH]1 [Compound 53]
DENV2; [4]
  EC50: > 10 µM
In vitro [1]
  CC50 at 48 h: > 10 µM

## COc1cccc(Nc2ccnc3ccc(S(C)(=O)=O)cc23)c1 [Compound 17]
DENV2; [4]
  EC50: > 10 µM
In vitro [1]
  CC50: > 10 µM

## Fc1cc2cn[nH]c2cc1Nc1ccnc2ccc(Br)cc12 [Compound 50, 6-bromo-N-(5-fluoro-1H-indazol-6-yl)quinolin-4-amine]
VEEV (TC-83)
  reduction in potency against VEEV relative to DENV: 4-8 fold
VEEV (TC-83); [5]
  EC50: 2.3 µM
  EC90: 9.6 µM
DENV2; [4]
  EC50: 0.69 µM
  EC90: 3.98 µM
DENV2
  EC90: 4 µM
In vitro [2]
  CC50: > 10 µM
In vitro [1]
  CC50: > 10 µM
In vitro [3]
  CC50: > 10 µM

## Brc1ccc2nccc(Nc3cccc4[nH]ncc34)c2c1 [Compound 48]
DENV2; [4]
  EC50: 2.1 µM
In vitro [1]
  CC50 at 48 h: > 10 µM

## Brc1ccc2nccc(Nc3ccc4c(c3)OCO4)c2c1 [Compound 28]
DENV2; [4]
  EC50: 1.7 µM
In vitro [1]
  CC50: 8.6 µM

## FC1(F)Oc2cccc(Nc3ccnc4ccc(Br)cc34)c2O1 [Compound 34]
DENV2; [4]
  EC50: 7.1 µM
In vitro [1]
  CC50: > 10 µM
